Values of other authors, collected in patent publication US20030004142A1, “Use of NSAIDs for prevention and treatment of cellular abnormalities of the lung or bronchial pathway” (priority 2001, published 2003).

Legend:
[1] = tested on: OPC
[2] = tested on: OPC cell lines; conditions: all OPC cell lines tested
[3] = tested on: OPC cell lines; conditions: all OPC cell lines tested; remark: listed apart in the source

In the case of `O=C(c1ccccc1)c1ccc2n1CCC2C(=O)O` (stereo not shown) [ketorolac, (.+−.)5(benzoyl)-2,3-dihydro-1H-pyrrolizine-1carboxylic acid], the “OPC growth in vivo” value [1] is given as “reduced OPC growth in vivo”, the PGE2 production [2] is given as “continuously and significantly decreased” and the IL-6 levels [3] is given as “continuously and significantly decreased”. For the same compound, the IL-8 levels [3] was “continuously and significantly decreased”.
